Test results as given in US20250352555A1, “METHOD OF INCREASING IMMUNE CELL ACTIVATION AND/OR TREATING CANCER USING DIBENZOXAZEPINONES” (VASCULAR THERAPEUTICS PTY LTD, priority 2022, published 2025).

How the values were obtained:
[1] = test system: JUN; assay: Western blotting for JUN, A375 cells; assay type: cell-based, human; conditions: A375 cells (BRAF^V600E), 24 h, dose-dependent
Description: (§1) Western blotting. Cells were treated with compounds and times indicated and total cell lysates were prepared in RIPA buffer. Lysates (10 μg) were resolved by SDS-PAGE and transferred to Immobilon-P polyvinylidene difluoride (PVDF) membranes (Millipore, USA).
Membranes were blocked with 5% skim milk and incubated with rabbit monoclonal anti-c-Jun (Abcam, cat. no. ab32137; mouse, rat and human reactive) antibody, rabbit monoclonal anti-PD-1 (Abcam, cat. no. ab214421) antibody, mouse monoclonal β-actin antibody (Sigma-Aldrich, cat. no. A5316), anti-phospho-SAPK/JNK (Thr^183/Tyr^185) (98F2) (CST, cat. no. 4671) antibody, anti-phospho-p44/42 MAPK (ERK1/2) (Thr^202/Tyr^204) (D13.14.4E) (CST, cat. no. 4370) antibody, anti-phospho-p38 MAPK (Thr^180/Tyr^182) (D3F9) (CST, cat. no. 4511) antibody, anti-SAPK/JNK antibody (CST, cat. no. 9252), anti-p44/42 MAPK (ERK1/2) (137F5) antibody (CST, cat. no. 4695), anti-p38 MAPK antibody (CST, cat. no. 9212), anti-DUSP8 antibody (Abcam, cat. no. ab198175) or anti-c-MAF (BLR045F) antibody (Abcam, cat. no. ab243901). […] Chemiluminescence was detected using the Western Lightning Chemiluminescence system (Thermo Scientific, USA) and ImageQuant™ LAS 4000 biomolecular imager (GE Healthcare Life Sciences, USA). Band intensity in images generated with the LAS 4000 was quantified using NIH Image J. […]

[2] = test system: total ERK; assay: Immunohistochemistry of MDA-MB-435 tumors, total ERK; assay type: in vivo, mouse; conditions: SCID mice, 20 mg/kg i.t.
Text: Immunohistochemical staining and analyses. Rabbit monoclonal anti-CD3 (cat. no. ab16669; mouse, rat and human reactive), rabbit monoclonal anti-PD-1 (cat. no. ab214421), rabbit monoclonal anti-CD68 (cat. no. ab125212) antibodies were obtained from Abcam, rabbit monoclonal anti-phospho-ERK (Thr^202/Tyr^204) (cat. no. CST4370), rabbit monoclonal total ERK (cat. no. CST4695), antibodies were obtained from Cell Signaling Technology. Rabbit polyclonal anti-PD-L1 (cat. no. PA5-20343) antibody was obtained from ThermoFisher.
Formalin fixed, paraffin embedded sections were prepared from tumors. Heat-induced epitope retrieval was applied to all deparaffinized sections (4 μm sections on Superfrost slides) with citrate buffer, pH 6.0 for 5 min at 110° C. Sections were blocked with Dual Endogenous Enzyme Block (DAKO, S2003) for 10 min and then with 2% skim milk for 20 min. Slides were incubated with primary antibody for 60 min at room temperature or overnight at 4° C. and then for 10 min with probe of MACH3 Rabbit AP-Polymer Detection solution (Biocare Medical, M3R533 G, H, L). […] Integrated optical density (IOD) or area of positive staining (red chromagen) was assessed using Image-Pro Plus software (Cybernetics, Bethesda, MD, USA). Positive staining was the average of quantitation in 4-8 fields of view under 20× or 40× objectives.

[3] = test system: endothelial cells; conditions: shown previously, cited from earlier work
[4] = test system: A375 cells; assay: Invasion assay (Matrigel), A375; assay type: cell-based, human; conditions: 1 μM, 24 h, with greater potency than SCH772984
Description: Invasion assays. Cells were grown in medium containing 10% FBS in 24-well plates. The following day the cells were scratched with a sterile toothpick, washed with PBS, and overlayed with 90% Matrigel (cat. no. 354230, Corning) (200 μl/well) containing vehicle, BT2 or SCH772984 at 1 μM. The cells were immediately photographed under a 10× objective using an Olympus CKX41 microscope, incubated at 37° C. for 1 h, and medium (800 μl/well) containing 10% FBS with vehicle, BT2 or SCH772984 at 1 μM was added. After 24 or 48 h, the cells were again photographed under a 10× objective using the same microscope. To assess the effect of BT2 on melanoma cell migration, A375 and MeWo cells were incubated with 1 μM of BT2 or SCH772984, and A375 and MeWo migration into the denuded zone was quantified after 24 or 48 h, respectively.

[5] = test system: MeWo cells; assay: Apoptosis, flow cytometry with Annexin V-FITC, MeWo; assay type: cell-based, human; conditions: 1 μM, 24 h
Description: Flow cytometry with Annexin V-FITC. Cells were seeded into 6 well plates in normal culture medium containing 10% FBS. After culturing overnight, the cells were incubated in complete medium containing vehicle, BT2 or SCH772984 at 1 μM and left for 24 h. The culture medium was removed and the cells were washed with PBS. Accutase (Stem Cell Technologies, cat. no. 07920) was used to detach the cells. The cells were then washed and centrifuged at 300 g for 5 min and resuspended at 1×10^6 cells/ml in 500 μl of 1× binding buffer (Annexin V-FITC Apoptosis Staining/Detection Kit, Abcam, cat. no. ab14085). The cells were transferred to 12×75 mm tubes and annexin V-FITC/propidium iodide (PI) was added and incubated for 5 min at 22° C. protected from light. Stained cell suspensions were analyzed by flow cytometry using a BD LSRFortessa X20.
The morphology of A375 and MeWo cells exposed to 1 μM of BT2 or SCH772984 for 24 h was also assessed.

[6] = test system: p-ERK (Thr^202/Tyr^204); assay: Western blotting for p-ERK, MeWo melanoma cells; assay type: cell-based, human; conditions: 10 or 100 nM, 24 h
Description: as §1
Membranes were blocked with 5% skim milk and incubated with rabbit monoclonal anti-c-Jun (Abcam, cat. no. ab32137; mouse, rat and human reactive) antibody, rabbit monoclonal anti-PD-1 (Abcam, cat. no. ab214421) antibody, mouse monoclonal β-actin antibody (Sigma-Aldrich, cat. no. A5316), anti-phospho-SAPK/JNK (Thr^183/Tyr^185) (98F2) (CST, cat. no. 4671) antibody, anti-phospho-p44/42 MAPK (ERK1/2) (Thr^202/Tyr^204) (D13.14.4E) (CST, cat. no. 4370) antibody, anti-phospho-p38 MAPK (Thr^180/Tyr^182) (D3F9) (CST, cat. no. 4511) antibody, anti-SAPK/JNK antibody (CST, cat. no. 9252), anti-p44/42 MAPK (ERK1/2) (137F5) antibody (CST, cat. no. […] Chemiluminescence was detected using the Western Lightning Chemiluminescence system (Thermo Scientific, USA) and ImageQuant™ LAS 4000 biomolecular imager (GE Healthcare Life Sciences, USA). Band intensity in images generated with the LAS 4000 was quantified using NIH Image J.
The effect of BT2 on ERK phosphorylation (p-ERK) was evaluated in human melanoma cells given that MAP kinase activation is key to melanoma progression and the paucity of clinically approved ERK inhibitors. […]

CCOC(=O)Nc1ccc2c(c1)C(=O)N(CC)c1ccccc1O2 [BT2, (10-ethyl-11-oxo-10,11-dihydro-dibenzo[b,f][1,4]oxazepin-2-yl)-carbamic acid ethyl ester]
JUN expression (Western blot) [1]: increased | total ERK levels in the tumors (IHC) [2]: no effect on total ERK levels | ERK phosphorylation and expression of FosB/ΔFosB and VCAM-1, and VEGF ([3]; endothelial cells): inhibit | endothelial cell proliferation and migration, angiogenesis and wound repair [3]: inhibit | invasion into the denuded zone of Matrigel [4]: suppressed | apoptosis (Annexin V-FITC+ PI−) [5]: increased apoptosis | ERK phosphorylation (p-ERK, Western blot) [6]: suppressed ERK phosphorylation
